Assay results taken from patent US20240108618A1, “KRAS G12C INHIBITOR DOSING REGIMENS” (Eli Lilly and Company, priority 2022, published 2024).
Values joined by “and” are separate entries in the source; they are usually repeats but may differ in a detail not shown here. Equal entries are not always repeated.

Tested on: KRAS G12C-mutant advanced solid tumors
Test: NCT04956640 Phase 1a monotherapy clinical response (BOR, ORR, DCR, DOR, TTR, % change from baseline, treatment duration)
Type: in vivo, human
Set-up: key to Duration of response (months), Median / Best Response: CR: complete response; PR: partial response; uPR: a partial response pending confirmation; SD: stable disease; PD: progressive disease; NE: not estimable
Details: for Time to response (months), Interquartile range / Time to response (months), Median / Duration of response (months), Median / % Change from Baseline in Sum of Diameters for all Target Lesions / Best Response / Time (months) of Death / Time (months) of Partial Response - Confirmed / Time (months) of Progressive Disease / Time (months) of Partial Response - Pending Confirmation and Ongoing / Patients with best overall response of CR or PR: Phase 1a; for Duration of response (months), Median: Kaplan-Meier estimate; for % Change from Baseline in Sum of Diameters for all Target Lesions / Best Response / Time (months) of Death / Time (months) of Partial Response - Confirmed / Time (months) of Progressive Disease / Time (months) of Partial Response - Pending Confirmation and Ongoing: individual patients
Procedure: The term “BOR” as used herein refers to best overall response based on investigator assessments using RECIST criteria (version 1.1). The minimum duration for BOR of SD is at least 6 weeks after the date of first dose of study drug.
The term “DOR” as used herein refers to duration of response, wherein DOR in months is calculated as the event or censoring date minus the response start date plus 1 day divided by 30.4375.
The term “ORR” as used herein refers to objective response rate, wherein objective response rate is the proportion of patients with BOR of CR or PR. Objective response rate, unconfirmed, is the proportion of patients with BOR of CR, PR, or uPR.
The term “TTR” as used herein refers to time to response, wherein TTR in months is calculated as response start date minus first dose date plus 1 day divided by 30.4375.
NCT04956640 includes Phase 1a dose escalation (Part A of NCT04956640, see Table 3) followed by a Phase 1b dose expansion (Parts B to E of NCT04956640, see Table 4). […] Phase 1b dose expansion will include 12 cohorts (See Table 4) to further evaluate safety and clinical activity.

[1] = starting dose 50 BID, no prior KRAS G12Ci, listed as compound of Formula I
[2] = starting dose 50 BID, prior KRAS G12Ci Y, listed as compound of Formula I
[3] = starting dose 100 BID, no prior KRAS G12Ci, listed as compound of Formula I
[4] = starting dose 100 BID, prior KRAS G12Ci Y
[5] = starting dose 100 BID, prior KRAS G12Ci Y, listed as compound of Formula I
[6] = starting dose 150 BID, no prior KRAS G12Ci, listed as compound of Formula I
[7] = starting dose 150 BID, prior KRAS G12Ci Y, listed as compound of Formula I
[8] = starting dose 200 BID, no prior KRAS G12Ci, listed as compound of Formula I
[9] = starting dose 200 BID, prior KRAS G12Ci Y, listed as compound of Formula I
[10] = starting dose 50 mg BID (N = 14)
[11] = starting dose 100 mg BID (N = 24)
[12] = starting dose 150 mg BID (N = 25)
[13] = starting dose 200 mg BID (N = 12)
[14] = starting dose 50 mg BID, incl. intrapatient dose escalation
[15] = starting dose 100 mg BID, incl. intrapatient dose escalation
[16] = starting dose 150 mg BID, 11 patients with scan data
[17] = starting dose 200 mg BID, 5 patients with scan data

C=CC(=O)N1CCN2C(=O)c3cc(F)c(-c4ccc(F)c5sc(N)c(C#N)c45)c(Cl)c3OCC[C@H]2C1 (single isomer, unassigned) [Formula I]
Time to response (months), Interquartile range (Total (N = 75)): 1.45 months
Time to response (months), Median (Total (N = 75)): 1.41 months
Duration of response (months), Median (Total (N = 75)): 6.24 months
% Change from Baseline in Sum of Diameters for all Target Lesions [1]: 9.7% and −0.3% and −6.0% and −8.6% and −9.9% and −10.5% and −13.1% and −17.1% and −26.8% and −31.6% and −45.0%
Best Response [1]: PD and SD (8×) and PR Confirmed (2×)
Time (months) of Death [1]: 9.8 months and 5.7 months and 1.8 months and 7.4 months and 11.5 months
Time (months) of Partial Response - Confirmed [1]: 1.3 months and 1.2 months
Time (months) of Progressive Disease [1]: 6.7 months and 2.8 months (2×) and 1.2 months and 5.3 months and 2.7 months and 11.1 months
% Change from Baseline in Sum of Diameters for all Target Lesions [2]: −13.0% and 50.0%
Best Response [2]: SD and PD
Time (months) of Death [2]: 8.4 months and 1.8 months
Time (months) of Progressive Disease [2]: 5.6 months and 1.3 months and 1.0 months
% Change from Baseline in Sum of Diameters for all Target Lesions [3]: 0.7% and 0.5% and −4.8% and −6.0% and −8.1% and −17.3% and −21.1% and −22.4% and −22.7% and −25.1% and −29.8% and −30.0% and −32.3% (2×) and −35.4% and −51.4% and −54.0% and −54.8% and −57.1% and −84.4%
Best Response [3]: SD (10×) and PD (2×) and PR Pending (2×) and PR Confirmed (6×)
Time (months) of Death [3]: 7.0 months and 10.3 months and 7.6 months and 1.7 months
Time (months) of Partial Response - Confirmed [3]: 1.3 months and 1.4 months (4×) and 7.7 months
Time (months) of Partial Response - Pending Confirmation and Ongoing [3]: 5.5 months and 1.2 months
Time (months) of Progressive Disease [3]: 2.9 months and 2.7 months and 4.2 months and 6.9 months and 4.1 months and 1.2 months and 5.6 months and 1.3 months and 9.5 months
Time (months) of Death [4]: 4.2 months
Time (months) of Partial Response - Confirmed [4]: 3.1 months
Time (months) of Progressive Disease [4]: 2.8 months
% Change from Baseline in Sum of Diameters for all Target Lesions [5]: −4.3% and −40.0% and −44.7%
Best Response [5]: SD (2×) and PR Confirmed
Time (months) of Partial Response - Pending Confirmation and Ongoing (starting dose 150 BID, no prior KRAS G12Ci): 1.2 months
% Change from Baseline in Sum of Diameters for all Target Lesions [6]: 27.3% and 4.3% and 3.8% and 3.4% and 0.0% and −0.7% and −5.3% and −7.1% and −8.2% and −11.5% and −16.7% and −18.8% and −23.3% and −24.0% and −37.0% and −41.6% and −51.0% and −52.4% and −60.3% and −67.9% and −91.1%
Best Response [6]: PD and SD (13×) and PR Pending and PR Confirmed (6×)
Time (months) of Death [6]: 5.3 months and 4.9 months
Time (months) of Partial Response - Confirmed [6]: 1.5 months and 4.1 months and 4.2 months and 1.4 months (3×)
Time (months) of Progressive Disease [6]: 9.7 months and 6.7 months and 7.6 months and 4.1 months and 3.3 months and 1.2 months
Time (months) of Death (starting dose 150 BID, prior KRAS G12Ci Y): 3.3 months
% Change from Baseline in Sum of Diameters for all Target Lesions [7]: −0.7% and −3.3% and −25.8% and −29.7%
Best Response [7]: SD (3×) and PD
Time (months) of Progressive Disease [7]: 4.1 months and 1.2 months
Time (months) of Death (starting dose 200 BID, no prior KRAS G12Ci): 4.7 months
% Change from Baseline in Sum of Diameters for all Target Lesions [8]: −4.2% and −5.0% and −9.6% and −9.9% and −14.3% and −32.3% and −37.5% and −65.9% and −75.0%
Best Response [8]: SD (4×) and PD and PR Confirmed (4×)
Time (months) of Partial Response - Confirmed [8]: 2.8 months and 1.4 months and 1.2 months (2×)
Time (months) of Progressive Disease [8]: 2.9 months and 2.5 months and 1.3 months and 8.3 months and 7.4 months
Time (months) of Progressive Disease (starting dose 200 BID, prior KRAS G12Ci Y): 1.3 months
% Change from Baseline in Sum of Diameters for all Target Lesions [9]: 5.3% and 1.4%
Best Response [9]: PD and SD
Patients with best overall response of CR or PR [10]: 2 (14.3) N′ (%)
Time to response (months), Interquartile range [10]: 0.13 months
Time to response (months), Median [10]: 1.25 months
Duration of response (months), Median [10]: NE
Patients with best overall response of CR or PR [11]: 7 (29.2) N′ (%)
Time to response (months), Interquartile range [11]: 1.68 months
Time to response (months), Median [11]: 1.41 months
Duration of response (months), Median [11]: 5.45 months
Patients with best overall response of CR or PR [12]: 6 (24.0) N′ (%)
Time to response (months), Interquartile range [12]: 2.69 months
Time to response (months), Median [12]: 1.46 months
Duration of response (months), Median [12]: 7.21 months
Patients with best overall response of CR or PR [13]: 4 (33.3) N′ (%)
Time to response (months), Interquartile range [13]: 0.87 months
Time to response (months), Median [13]: 1.33 months
Duration of response (months), Median [13]: 6.93 months
median time to response (human, in vivo): 1.4 month
Best observed response PR (unconfirmed and confirmed), patients (other tumor types): 3
Best observed response SD, patients (other tumor types): 6
PR, patients (starting dose 50 mg BID): 0
DCR [14]: 75%
ORR [14]: 0%
PD, patients (starting dose 100 mg BID): 2 (2 PANC)
DCR [15]: 80%
ORR [15]: 40%
DCR [16]: 90.9%
ORR [16]: 18.2%
DCR [17]: 100%
ORR [17]: 20%
